The results in this text go back to patent US7960556B2, “Thiadiazole derivatives for the treatment of neuro-degenerative diseases” (NV reMYND, priority 2006, dated 2011).

The assay deals with α-synuclein cytotoxicity in M17-SYNwt cells. Nature of the assay: α-synuclein cytotoxicity assay: LDH leakage from paraquat-treated M17-SYNwt neuroblastoma cells.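 On all read-outs here: paraquat at 32 mM co-added with compound, 40 h exposure, LDH activity released into the culture medium measured, references are DMSO-only cells and paraquat plus DMSO cells.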 The note with it: Homo sapiens, Neuroblastoma cell; for Emax: read-out: % Inhib. In general terms: LDH leaks from cells whose membrane has failed.

Molecules are shown by their SMILES.

From the text: An α-synuclein expression plasmid was constructed by sub-cloning the NcoI/XhoI fragment from 212T-SYN(WT) (Griffioen et al., Biochem Biophys Acta (2006) 1762(3):312-318) containing the cDNA of human wild type α-synuclein correspondingly into a standard mammalian expression vector pcDNA3.1 (Invitrogen) resulting into the plasmid pcDNA3.1-SYNwt. Plasmids pcDNA3.1 and pcDNA3.1-SYNwt were transfected to human neuroblastoma cells (ATCC No. CRL-2267) and independent clonal lines with the plasmids stably integrated into the genome were selected. […] Over-expression of α-synuclein in M17-SYNwt cell lines was confirmed by Western analysis.
Due to the high levels of α-synuclein M17-SYNwt cells are exquisitely sensitivity to paraquat, a well-known risk factor of synuclein-dependent neuronal degeneration. In degenerated or dead cells lactate dehydrogenase (LDH) is leaked out of the cells into the extracellular environment due to a loss of plasma-membrane integrity. This principle was used to determine cytotoxicity by quantifying the level of leaked LDH into the growth medium.
The detailed method for determining α-synuclein cytotoxicity was as follows: From appropriate precultures of M17 and M17-SYN cells were seeded at 50,000 cells/cm^2 in Optimem Reduced Serum without phenol red (available from InVitrogen, Cat. 31985-047) supplemented with 5% fetal calf serum, 1 mM sodium pyruvate, 1× non-essential amino acids, 500 μg/ml G418 0,5× antibiotic/antimycotic. After 3 hours of incubation at 37° C./5% CO2 paraquat was added to the cells (final concentration of 32 mM), together with the test compound and the cells were further incubated for 40 hours. Subsequently, LDH activity was determined using Promega Cytotox 96 Non-Radioactive cytotoxicity assay, (Cat. G1780) according the instructions of the supplier.
In these experiments, the control group consisted of M17-SYNwt cells treated with DMSO, the untreated paraquat group consisted of M17-SYNwt cells treated with paraquat and DMSO, and the treated paraquat group consisted of M17-SYNwt cells treated with paraquat and the test compound dissolved in DMSO.

Take `COc1cccc(Cc2nsc(N3CCN(C(=O)c4ccc(Cl)cc4)C(C)C3)n2)c1` (stereo not drawn) [compound 174, 1-(4-chlorobenzoyl)-4-[3-(3-methoxybenzyl)-1,2,4-thiadiazol-5-yl]-2-methylpiperazine]: the Emax was determined as 83%. Consider `Cc1ccc(Cc2nsc(N3CCN(C(=O)c4ccccc4F)CC3)n2)cc1` [compound 175, 1-(2-fluorobenzoyl)-4-[3-(4-methylbenzyl)-1,2,4-thiadiazol-5-yl]piperazine], for which the Emax amounted to 78%.

For the compound `CCCCCCc1ccc(C(=O)N2CCN(c3nc(Cc4ccc(C)cc4)ns3)CC2)cc1` [compound 176, 1-(4-hexylbenzoyl)-4-[3-(4-methylbenzyl)-1,2,4-thiadiazol-5-yl]piperazine], the Emax amounted to 77%. As for `CC1CN(c2nc(Cc3ccc(F)cc3)ns2)CCN1C(=O)c1ccc([N+](=O)[O-])cc1Cl` (stereo not drawn) [compound 177, 1-(2-chloro-4-nitrobenzoyl)-4-[3-(4-fluorobenzyl)-1,2,4-thiadiazol-5-yl]-2-methylpiperazine], the Emax came to 77%. Take `CC1CN(c2nc(Cc3ccc(F)cc3)ns2)CCN1C(=O)c1ccc2c(c1)OCO2` (stereo not drawn) [compound 178, 1-(1,3-benzodioxol-5-ylcarbonyl)-4-[3-(4-fluorobenzyl)-1,2,4-thiadiazol-5-yl]-2-methylpiperazine]: the Emax is 68%. For `CC1CN(c2nc(Cc3ccc(F)cc3)ns2)CCN1C(=O)c1cccc(F)c1` (stereo not drawn) [compound 179, 1-(3-fluorobenzoyl)-4-[3-(4-fluorobenzyl)-1,2,4-thiadiazol-5-yl]-2-methylpiperazine], the Emax is 68%. With `CC(C)(C)c1ccc(C(=O)N2CCN(c3nc(Cc4ccc(F)cc4)ns3)CC2)cc1` [compound 180, 1-(4-tert-butylbenzoyl)-4-[3-(4-fluorobenzyl)-1,2,4-thiadiazol-5-yl]piperazine], the Emax came to 62%.

For `O=C(c1ccccc1)N1CCN(c2nc(Cc3ccc(F)cc3)ns2)CC1` [compound 181, 1-benzoyl-4-[3-(4-fluorobenzyl)-1,2,4-thiadiazol-5-yl]piperazine], the Emax worked out at 60%. As to `CCCCc1ccc(C(=O)N2CCN(c3nc(Cc4ccc(C)cc4)ns3)CC2)cc1` [compound 182, 1-(4-butylbenzoyl)-4-[3-(4-methylbenzyl)-1,2,4-thiadiazol-5-yl]piperazine], the Emax is 57%. For `Cc1ccc(Cc2nsc(N3CCN(C(=O)c4ccc(C(C)(C)C)cc4)CC3)n2)cc1` [compound 183, 1-(4-tert-butylbenzoyl)-4-[3-(4-methylbenzyl)-1,2,4-thiadiazol-5-yl]piperazine], the Emax was 52%.

For `CC1CN(c2nc(Cc3ccc(F)cc3)ns2)CCN1C(=O)c1ccc([N+](=O)[O-])cc1` (stereo not drawn) [compound 184, 1-(4-nitrobenzoyl)-4-[3-(4-fluorobenzyl)-1,2,4-thiadiazol-5-yl]-2-methylpiperazine], the Emax stood at 52%. For `CCOc1ccccc1N1CCN(c2nc(Cc3ccc(F)cc3)ns2)CC1` [compound 186, 1-(2-ethoxyphenyl)-4-[3-(4-fluorobenzyl)-1,2,4-thiadiazol-5-yl]piperazine], a half-maximal effect (EC50) was put at 2050 nM and the Emax was determined as 94%.

In the case of `Fc1ccc(Cc2nsc(N3CCN(c4ccccc4F)CC3)n2)cc1` [compound 187, 1-(2-fluorophenyl)-4-[3-(4-fluorobenzyl)-1,2,4-thiadiazol-5-yl]piperazine], a half-maximal response (EC50) required 2810 nM and the Emax was found to be 83%. In the case of `Fc1ccc(Cc2nsc(N3CCN(c4cccc(C(F)(F)F)c4)CC3)n2)cc1` [compound 188, 1-(3-trifluoromethylphenyl)-4-[3-(4-fluorobenzyl)-1,2,4-thiadiazol-5-yl]piperazine], the Emax is 96%. On to `O=C(c1ccc(Cl)cc1)N1CCCN(c2nc(Cc3ccc(F)cc3)ns2)CC1` [compound 189, 1-(4-chlorobenzoyl)-4-[3-(4-fluorobenzyl)-1,2,4-thiadiazol-5-yl]-1,4-diazepane], for which the EC50 is 170 nM and the Emax came to 85%. Regarding `Cc1ccc(C(=O)N2CCCN(c3nc(Cc4ccc(F)cc4)ns3)CC2)cc1` [compound 190, 1-(4-methylbenzoyl)-4-[3-(4-fluorobenzyl)-1,2,4-thiadiazol-5-yl]-1,4-diazepane], the EC50 was 2770 nM and the Emax was found to be 87%. Regarding `O=C(c1ccc2c(c1)OCO2)N1CCCN(c2nc(Cc3ccc(F)cc3)ns2)CC1` [compound 191, 1-(1,3-benzodioxol-5-ylcarbonyl)-4-[3-(4-fluorobenzyl)-1,2,4-thiadiazol-5-yl]-1,4-diazepane], the Emax was determined as 63%. In the case of `COc1ccc(S(=O)(=O)N2CCN(c3nc(Cc4cccc(F)c4)ns3)CC2)cc1` [compound 193, 1-[4-methoxyphenylsulfonyl]-4-[3-(3-fluoro-benzyl)-1,2,4-thiadiazol-5-yl]piperazine], the EC50 was 10.7 nM and the Emax was 68%. With `COc1ccc(S(=O)(=O)N2CCN(c3nc(Cc4ccccc4F)ns3)CC2)cc1` [compound 194, 1-[4-methoxyphenylsulfonyl]-4-[3-(2-fluoro-benzyl)-1,2,4-thiadiazol-5-yl]piperazine], the response was half-maximal at 2.7 nM (EC50) and the Emax came out at 102%.

For `COc1ccccc1S(=O)(=O)N1CCN(c2nc(Cc3ccc(F)cc3)ns2)CC1` [compound 195], the concentration for a half-maximal effect (EC50) was determined as 56.7 nM and the Emax is 99%. With `CCOc1ccc(S(=O)(=O)N2CCN(c3nc(Cc4ccc(F)cc4)ns3)CC2)cc1` [compound 196, 1-[4-ethoxyphenylsulfonyl]-4-[3-(4-fluoro-benzyl)-1,2,4-thiadiazol-5-yl]piperazine], a half-maximal effect (EC50) was put at 17.6 nM and the Emax worked out at 42%. Regarding `CCc1ccc(S(=O)(=O)N2CCN(c3nc(Cc4ccc(F)cc4)ns3)CC2)cc1` [compound 197, 1-[4-ethylphenylsulfonyl]-4-[3-(4-fluoro-benzyl)-1,2,4-thiadiazol-5-yl]piperazine], the EC50 was found to be 535 nM and the Emax came out at 84%.

Regarding `O=S(=O)(c1ccccc1)N1CCN(c2nc(Cc3ccc(F)cc3)ns2)CC1` [compound 198, 1-phenylsulfonyl-4-[3-(4-fluoro-benzyl)-1,2,4-thiadiazol-5-yl]piperazine], the EC50 came out at 349 nM and the Emax was determined as 25%. `COc1ccc(S(=O)(=O)N2CCN(c3nc(Cc4ccccc4)ns3)CC2)cc1` [compound 199, 1-[4-methoxyphenylsulfonyl]-4-[3-benzyl-1,2,4-thiadiazol-5-yl]piperazine]: the EC50 came out at 3.8 nM and the Emax stood at 38%. Take `COc1ccc(S(=O)(=O)N2CCN(c3nc(Cc4cccc(OC)c4)ns3)CC2C)cc1` (stereo not drawn) [compound 208, 1-[4-methoxyphenylsulfonyl]-4-[3-(3-methoxybenzyl)-1,2,4-thiadiazol-5-yl]-2-methyl-piperazine]: a half-maximal response (EC50) required 7.3 nM. Take `COc1ccc(S(=O)(=O)NCCNc2nc(Cc3cccc(OC)c3)ns2)cc1` [compound 209, 1-N-[4-methoxyphenylsulfonyl]-N′-[3-(3-methoxybenzyl)-1,2,4-thiadiazol-5-yl]-ethane-1,2-diamine]: the concentration giving a half-maximal response (EC50) came to 317 nM and the Emax stood at 100%.

As to `COc1ccc(S(=O)(=O)NCCCNc2nc(Cc3cccc(OC)c3)ns2)cc1` [compound 211, N-[4-methoxyphenylsulfonyl]-N′-[3-(3-methoxybenzyl)-1,2,4-thiadiazol-5-yl]-propane-1,3-diamine], the EC50 was 367 nM and the Emax worked out at 100%.

Turning to `COc1ccc(S(=O)(=O)NCCN(C)c2nc(Cc3cccc(OC)c3)ns2)cc1` [compound 213, N′-[4-methoxyphenylsulfonyl]-N-[3-(3-methoxybenzyl)-1,2,4-thiadiazol-5-yl]-N-methylethane-1,2-diamine], a half-maximal response (EC50) required 361 nM and the Emax came out at 94%.

`COc1ccc(S(=O)(=O)N(C)CCNc2nc(Cc3cccc(OC)c3)ns2)cc1` [compound 214, N′-[4-methoxyphenylsulfonyl]-N-[3-(3-methoxybenzyl)-1,2,4-thiadiazol-5-yl]-N′-methylethane-1,2-diamine]: the EC50 was determined as 498 nM and the Emax was determined as 95%. Taken in the same sequence, the figures for `COc1ccc(S(=O)(=O)N(C)CCN(C)c2nc(Cc3cccc(OC)c3)ns2)cc1` [compound 215, N′-[4-methoxyphenylsulfonyl]-N-[3-(3-methoxybenzyl)-1,2,4-thiadiazol-5-yl]-N,N′-dimethylethane-1,2-diamine] were 301 nM and 105%. Regarding `O=S(=O)(c1ccc(O)cc1)N1CCN(c2nc(Cc3ccc(F)cc3)ns2)CC1` [compound 217, 1-(4-hydroxybenzenesulfonyl)-4-[3-(4-fluoro-benzyl)-1,2,4-thiadiazol-5-yl]piperazine], the concentration giving a half-maximal response (EC50) turned out to be 77 nM and the Emax turned out to be 77%.

One may read the EC50 as the concentration at which the effect is half-maximal. Low readings indicate an effect from little substance, high ones a need for much substance.
